# Paper PMC6366974, “The curcumin analog EF24 is a novel senolytic agent” (Aging (Albany NY), 2019)
# Assays:
# [1] = system: WI-38 NCs; experiment: ROS measurement (DHR staining, flow cytometry); assay type: cell-based, human; settings: 2 µM, 3 h and 6 h, DHR MFI
# Procedure: (§1) WI-38 NCs and IR-SCs were incubated with vehicle or 2 µM EF24 for 3, 6, 24, or 72 h. After removal of suspension cells, adherent cells were detached using 0.25% Trypsin-EDTA at 37°C for 5 min. They were rinsed with DMEM once and then incubated with pre-warmed DMEM medium containing 1 µM dihydrorhodamine 123 (DHR, Cat. No. D23806, Thermo Fisher Scientific, Waltham, MA, USA) at 37°C for 30 min in dark. After washing in 4 mL DMEM with 100 ng/mL PI, cells were centrifuged immediately at 1,000 r.p.m. for 5 min to remove PI and re-suspended in DMEM medium for flow cytometry analysis. Mean fluorescence intensity (MFI) of PI negative cells was determined using the BD LSR II flow cytometer.
# [2] = system: WI-38 IR-SCs; experiment: ROS measurement (DHR staining, flow cytometry); assay type: cell-based, human; settings: 2 µM, 3 h and 6 h, DHR MFI
# Procedure: as §1
# [3] = system: IMR-90 fibroblasts Rep-SCs; experiment: Cell viability assay (flow cytometry, PI); assay type: cell-based; settings: Homo sapiens, IMR-90, 72 h
# Procedure: (§2) Human WI-38 fibroblasts (WI-38, Cat. No. CCL-75), human IMR-90 fibroblasts (IMR-90, Cat. No. CCL-186), human umbilical vein endothelial cells (HUVEC, Cat. No. CRL-1730), human renal epithelial cells (HREC, Cat. No. PCS-400-012) and human pre-adipocytes (Cat. No. PCS-210-010) were newly purchased from the American Type Culture Collection (ATCC, Manassas, VA, USA). WI-38 and IMR-90 cells were cultured in complete Dulbecco’s modified Eagle medium (DMEM, Cat. No. 12430054, Thermo Fisher Scientific, Waltham, MA, USA) supplemented with 10% heat-inactivated fetal bovine serum (FBS, Cat. No. S11150H, Atlanta Biologicals, Flowery Branch, GA, USA), 100 U/mL penicillin and 100 µg/mL streptomycin (Pen Strep, Cat. No. 15140122, Thermo Fisher Scientific, Waltham, MA, USA) in a humidified incubator at 37°C and 5% CO2. HUVEC were cultured in EGM-2 BulletKit (Cat. No. CC-3162, Lonza, Basel, Switzerland) containing basal medium supplemented with growth factors, cytokines and other supplements according to the manufacturer’s protocol. HREC were cultured in renal epithelial cell basal medium (Cat. No. PCS-400-030, ATCC, Manassas, VA, USA) supplemented with renal epithelial cell growth kit (Cat. No. PCS400040, ATCC, Manassas, VA, USA). Human pre-adipocytes were cultured in fibroblast basal medium (Cat. No. PCS-201-030, ATCC, Manassas, VA, USA) supplemented with fibroblast growth kit-low serum (Cat. No. PCS201041, ATCC, Manassas, VA, USA). EF24 (Cat. No. E8409) and HO-3867 (Cat. No. S7501) were purchased from Sigma-Aldrich (St. Louis, MO, USA) and Selleckchem (Houston, TX, USA), respectively. DIMC (Cat. No. 10009986) and 2-HBA (Cat. No. 11879) were both purchased from Cayman Chemical (Ann Arbor, MI, USA).
# (§3) Three different methods were used for the induction of SCs, including replicative exhaustion, ionizing radiation and ectopic Ras expression as previously described. Briefly, low-passage WI-38 cells (< 25 passages), IMR-90 cells (< 25 passages), HUVEC (< 10 passages), HREC (< 10 passages) and pre-adipocytes (< 4 passages) were used as NCs or for the induction of senescence. To induce replicative senescence (Rep-SCs), WI-38 and IMR-90 fibroblasts, HUVEC, HREC and pre-adipocytes were subcultured until they stopped to divide and became permanently growth arrested senescence after 38 passages (WI-38), 38 passages (IMR-90), 22 passages (HUVEC), 30 passages (HREC) and 10 passages (pre-adipocytes), respectively. To induce SCs by ionizing radiation (IR-SCs) and ectopic expression of Ras (Ras-SCs), WI-38 NCs were treated as previously described.
# (§4) Number of viable cells were quantified using flow cytometry as previously described with slight modifications. Specifically, NCs and SCs were incubated with vehicle (0.1% DMSO) or a test compound at indicated concentrations for 72 h. Following dissociation with 0.25% Trypsin-EDTA (Cat. No. 25200056, Thermo Fisher Scientific, Waltham, MA, USA) at 37°C for 5 min, the cells were harvested in 100 µl pre-cooled phosphate buffered saline (PBS, Cat. No. 20012027, Thermo Fisher Scientific, Waltham, MA, USA) containing 2% FBS and 100 ng/mL propidium iodide (PI, P4170, Sigma-Aldrich, St. Louis, MO, USA) and analyzed using flow cytometry (LSR II, BD Biosciences, San Jose, CA, USA). Percentage of viable cells were determined by counting the number of PI negative cells (viable cells) and then calculated as a ratio of control cells treated with vehicle. In addition, dose-response curves were generated for each compound, and the concentration for 50% of maximal effect (EC50 values) was calculated using GraphPad Prism 6.
# [4] = system: WI-38 replication-exhausted senescent cells (Rep-SCs); experiment: Cell viability assay (flow cytometry, PI); assay type: cell-based; settings: Homo sapiens; WI-38, 72 h, Table 2
# Procedure: as §2, §3, §4
# [5] = system: IMR-90 fibroblasts NCs; experiment: Cell viability assay (flow cytometry, PI); assay type: cell-based; settings: Homo sapiens, IMR-90, 72 h
# Procedure: as §2, §3, §4
# [6] = system: pre-adipocytes NCs; experiment: Cell viability assay (flow cytometry, PI); assay type: cell-based; settings: Homo sapiens; Pre-adipocyte, 72 h
# Procedure: as §2, §3, §4
# [7] = system: HUVEC NCs; experiment: Cell viability assay (flow cytometry, PI); assay type: cell-based; settings: Homo sapiens, 72 h
# Procedure: as §2, §3, §4
# [8] = system: HREC Rep-SCs; experiment: Cell viability assay (flow cytometry, PI); assay type: cell-based; settings: Homo sapiens, 72 h
# Procedure: as §2, §3, §4
# [9] = system: pre-adipocytes Rep-SCs; experiment: Cell viability assay (flow cytometry, PI); assay type: cell-based; settings: Homo sapiens; Pre-adipocyte, 72 h
# Procedure: as §2, §3, §4
# [10] = system: HREC NCs; experiment: Cell viability assay (flow cytometry, PI); assay type: cell-based; settings: Homo sapiens, 72 h
# Procedure: as §2, §3, §4
# [11] = system: HUVEC Rep-SCs; experiment: Cell viability assay (flow cytometry, PI); assay type: cell-based; settings: Homo sapiens, 72 h
# Procedure: as §2, §3, §4
# [12] = system: cancer cells; parameters: method as in PMID 15210154; settings: more potent than curcumin; cited from earlier work
# [13] = system: WI-38 non-senescent cells (NCs); experiment: Cell viability assay (flow cytometry, PI); assay type: cell-based, human; settings: for EC50: Homo sapiens, WI-38, 72 h
# Procedure: as §2, §3, §4
# [14] = system: WI-38 Ras-induced senescent cells (Ras-SCs); experiment: Cell viability assay (flow cytometry, PI); assay type: cell-based, human; settings: 72 h
# Procedure: as §2, §3, §4
# [15] = system: HUVEC IR-SCs; experiment: Cell viability assay (flow cytometry, PI); assay type: cell-based; settings: Homo sapiens, 72 h
smiles,measurement,setting,value
O=C1/C(=C/c2ccccc2F)CNC/C1=C\c1ccccc1F [EF24],ROS production in NCs,[1],did not increase ROS production
same,ROS production in IR-SCs,[2],did not increase ROS production
same,EC50,[3],0.33 µM
same,EC50,[4],1.26 µM
same,EC50,[5],10.9 µM
same,EC50,[6],8.92 µM
same,EC50,[7],1.39 µM
same,EC50,[8],0.6 µM
same,EC50,[9],4.6 µM
same,EC50,[10],3.25 µM
same,EC50,[11],0.77 µM
same,potency in inducing cancer cell death relative to curcumin,[12],10 fold
same,EC50,[13]; Table 2,4.32 µM
same,EC50,"[13]; WI-38 NCs, 72 h, Table 1 screen of curcumin analogs",4.69 µM
same,effect on the cell viability of WI-38 NCs,"[13]; below 4 μM, 72 h",minimal effect
same,sensitivity of WI-38 Ras-SCs compared with Rep-SCs and IR-SCs,[14],highest sensitivity
same,EC50,[15],2.09 µM
